Test results published in patent US20080032989A1, “Method of treating inflammatory diseases using tyroskine kinase inhibitors” (priority 2006, published 2008).
Where “and” joins values, the source holds several entries; their conditions need not be identical. Equal entries are not always repeated. Entries after “also recorded” stand apart in the source; their conditions may differ. Where two headings read alike, the source gives them in different places.

Legend:
PDGFR [1] = conditions: cited from earlier work
[2] = system: collagen-induced arthritis (CIA) in DBA/1 mice; conditions: for severity of CIA (scores, paw measurements), direct comparison study: CGP53716 daily i.p. from 1 day prior to induction
PDGFR [3] = system: PDGFR
[4] = I.P. 100 mg/kg, cited from earlier work
c-Kit [5] = target: T1, c-Kit (Homo sapiens, UniProt P10721); assay: In vitro c-Kit phosphorylation assay (HTScan c-Kit Kinase Assay); format: biochemical; set-up: purchased Cell Signaling; conditions: 30 minutes, time-resolved fluorescence, FIG. 11A
FGFR = conditions: literature, cited from earlier work
[6] = system: EGFR, FGFR, insulin receptors, Src, Lyn, PKA and PKC; conditions: clinically relevant concentrations; cited from earlier work
Abl = Abl (Homo sapiens, UniProt P00519); conditions: literature; cited from earlier work
Abl, sequence (P00519 whole entry, species assumed): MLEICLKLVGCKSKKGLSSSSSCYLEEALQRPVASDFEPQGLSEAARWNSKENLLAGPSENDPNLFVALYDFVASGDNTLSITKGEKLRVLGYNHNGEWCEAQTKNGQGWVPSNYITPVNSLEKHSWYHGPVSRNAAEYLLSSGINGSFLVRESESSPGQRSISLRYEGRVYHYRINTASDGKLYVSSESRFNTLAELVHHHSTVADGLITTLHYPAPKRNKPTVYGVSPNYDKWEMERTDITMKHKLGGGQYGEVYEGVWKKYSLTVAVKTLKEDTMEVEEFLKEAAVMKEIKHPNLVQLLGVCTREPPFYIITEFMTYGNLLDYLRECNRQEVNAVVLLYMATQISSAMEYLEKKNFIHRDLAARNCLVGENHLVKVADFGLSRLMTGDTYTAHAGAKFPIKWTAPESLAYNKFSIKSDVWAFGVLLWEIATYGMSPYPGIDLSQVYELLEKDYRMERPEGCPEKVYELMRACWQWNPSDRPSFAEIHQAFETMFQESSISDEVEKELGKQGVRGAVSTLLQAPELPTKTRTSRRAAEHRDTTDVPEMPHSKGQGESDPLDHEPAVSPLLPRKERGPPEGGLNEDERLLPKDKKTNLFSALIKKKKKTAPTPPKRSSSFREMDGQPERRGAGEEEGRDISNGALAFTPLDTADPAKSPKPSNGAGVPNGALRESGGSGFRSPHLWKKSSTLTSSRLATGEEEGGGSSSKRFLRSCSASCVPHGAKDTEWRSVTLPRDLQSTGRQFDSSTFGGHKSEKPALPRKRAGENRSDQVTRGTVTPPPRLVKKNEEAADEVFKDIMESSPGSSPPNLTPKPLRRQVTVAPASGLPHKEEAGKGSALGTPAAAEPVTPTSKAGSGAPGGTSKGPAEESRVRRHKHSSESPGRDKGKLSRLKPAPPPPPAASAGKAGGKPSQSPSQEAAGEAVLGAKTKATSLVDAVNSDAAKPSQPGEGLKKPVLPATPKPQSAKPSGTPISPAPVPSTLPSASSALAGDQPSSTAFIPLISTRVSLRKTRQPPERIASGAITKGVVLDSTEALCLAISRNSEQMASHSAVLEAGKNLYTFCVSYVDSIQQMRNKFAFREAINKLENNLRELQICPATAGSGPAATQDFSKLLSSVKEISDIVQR

c-Kit [7] = target: T1, c-Kit; conditions: Table 5; read-out: Kit Inhibitory Profile (IC50); cited from earlier work
[8] = system: established collagen-induced arthritis (CIA) in DBA/1 mice; assay: Treatment of established collagen-induced arthritis (CIA); format: in vivo, mouse
synovial fluid monocytes = assay: M-CSF-induced differentiation of RA synovial fluid monocytes to macrophages (morphology); format: cell-based, human; conditions: 5 μM imatinib with M-CSF, 72 hours
Description: H. Macrophage isolation and stimulation. […]. […]

EAE in C57B/6 mice = assay: Experimental autoimmune encephalomyelitis (EAE); format: in vivo, mouse; conditions: 100 mg/kg twice daily vs PBS-vehicle
[9] = system: autoreactive B cell responses in mice with CIA; assay: Synovial array profiling of serum autoantibodies in CIA mice; format: in vivo, mouse; conditions: 100 mg/kg imatinib, day 49 sera
Experimental: M. Synovial array analysis. As described (Robinson, W. H., et al., Nat Med 8:295-301, (2002); Hueber, W., et al., Arthritis Rheum 52:2645-2655, (2005)), 500+ peptides and proteins representing autoantigens were printed on SuperEpoxy slides (TeleChem), arrays were incubated with 1:150 dilutions of mouse sera, followed by Cy3-labeled anti-mouse IgG/M antibody (Jackson Immunoresearch), and scanned using a GenePix 4000B scanner. Median feature intensities for each antigen were calculated from the 4-8 duplicate features representing each antigen.
. A robotic microarrayer was used to produce synovial arrays containing a spectrum of proteins and peptides representing candidate autoantigens in RA and CIA (Robinson, W. H., et al., Nat Med 8:295-301, (2002); Hueber, W., et al., Arthritis Rheum 52:2645-2655, (2005)). Arrays were incubated with 1:150 dilutions of sera, autoantibody binding detected with Cy3-labeled anti-mouse IgG/M, and arrays scanned and median fluorescence for each antigen determined. […]. Cluster and TreeView software was applied to order and display the array reactivity as a heatmap. […]

C1.MC/57.1 mast cells = assay: SCF-stimulated mast cell cytokine production; conditions: 100 ng/mL SCF, 48 hrs, imatinib 1 μM and 5 μM
c-Kit [10] = target: T2, c-Kit (Mus musculus, UniProt P05532); assay: SCF-induced mast cell signaling, immunoblot and RPP lysate array; format: cell-based; conditions: mast cells
T2 construct: endogenous in cells; host or cells: C1.MC/57.1 mouse mast cell line
T2 sequence (P05532 25-979): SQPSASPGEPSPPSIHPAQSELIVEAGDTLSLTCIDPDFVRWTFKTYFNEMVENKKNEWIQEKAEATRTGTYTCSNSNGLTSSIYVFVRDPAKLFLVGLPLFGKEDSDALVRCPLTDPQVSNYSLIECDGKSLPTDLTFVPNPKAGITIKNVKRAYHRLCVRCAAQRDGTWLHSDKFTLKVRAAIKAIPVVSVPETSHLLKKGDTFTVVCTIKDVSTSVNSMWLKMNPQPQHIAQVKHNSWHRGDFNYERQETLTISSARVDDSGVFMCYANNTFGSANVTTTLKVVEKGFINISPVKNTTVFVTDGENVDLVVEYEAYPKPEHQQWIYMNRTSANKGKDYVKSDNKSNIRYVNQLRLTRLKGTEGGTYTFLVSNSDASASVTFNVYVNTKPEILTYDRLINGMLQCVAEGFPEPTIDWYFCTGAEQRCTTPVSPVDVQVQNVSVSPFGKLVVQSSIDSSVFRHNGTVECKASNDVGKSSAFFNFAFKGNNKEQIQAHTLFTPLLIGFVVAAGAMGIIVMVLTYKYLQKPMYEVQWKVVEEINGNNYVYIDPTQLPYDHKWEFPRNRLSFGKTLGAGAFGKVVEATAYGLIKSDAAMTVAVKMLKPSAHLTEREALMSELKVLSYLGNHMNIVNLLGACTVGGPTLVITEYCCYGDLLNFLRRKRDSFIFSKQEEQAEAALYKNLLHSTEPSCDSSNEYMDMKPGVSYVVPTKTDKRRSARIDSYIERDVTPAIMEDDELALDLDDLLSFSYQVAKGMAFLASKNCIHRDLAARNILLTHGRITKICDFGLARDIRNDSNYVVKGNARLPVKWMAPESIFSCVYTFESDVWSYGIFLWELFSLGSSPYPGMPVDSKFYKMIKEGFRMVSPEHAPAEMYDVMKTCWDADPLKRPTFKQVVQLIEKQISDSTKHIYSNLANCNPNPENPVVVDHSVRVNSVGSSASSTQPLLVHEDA

[11] = system: B cells from naïve DBA/1 mice
[12] = system: splenocytes expressing CII-specific TCR
anti-CII T cells = conditions: mouse, 24 h
[13] = mice, cited from earlier work; for trough plasma level: 15 hours after dosing
EGFR = EGFR (Homo sapiens, UniProt P00533); conditions: Table 7; cited from earlier work
EGFR, sequence (P00533 25-1210, species assumed): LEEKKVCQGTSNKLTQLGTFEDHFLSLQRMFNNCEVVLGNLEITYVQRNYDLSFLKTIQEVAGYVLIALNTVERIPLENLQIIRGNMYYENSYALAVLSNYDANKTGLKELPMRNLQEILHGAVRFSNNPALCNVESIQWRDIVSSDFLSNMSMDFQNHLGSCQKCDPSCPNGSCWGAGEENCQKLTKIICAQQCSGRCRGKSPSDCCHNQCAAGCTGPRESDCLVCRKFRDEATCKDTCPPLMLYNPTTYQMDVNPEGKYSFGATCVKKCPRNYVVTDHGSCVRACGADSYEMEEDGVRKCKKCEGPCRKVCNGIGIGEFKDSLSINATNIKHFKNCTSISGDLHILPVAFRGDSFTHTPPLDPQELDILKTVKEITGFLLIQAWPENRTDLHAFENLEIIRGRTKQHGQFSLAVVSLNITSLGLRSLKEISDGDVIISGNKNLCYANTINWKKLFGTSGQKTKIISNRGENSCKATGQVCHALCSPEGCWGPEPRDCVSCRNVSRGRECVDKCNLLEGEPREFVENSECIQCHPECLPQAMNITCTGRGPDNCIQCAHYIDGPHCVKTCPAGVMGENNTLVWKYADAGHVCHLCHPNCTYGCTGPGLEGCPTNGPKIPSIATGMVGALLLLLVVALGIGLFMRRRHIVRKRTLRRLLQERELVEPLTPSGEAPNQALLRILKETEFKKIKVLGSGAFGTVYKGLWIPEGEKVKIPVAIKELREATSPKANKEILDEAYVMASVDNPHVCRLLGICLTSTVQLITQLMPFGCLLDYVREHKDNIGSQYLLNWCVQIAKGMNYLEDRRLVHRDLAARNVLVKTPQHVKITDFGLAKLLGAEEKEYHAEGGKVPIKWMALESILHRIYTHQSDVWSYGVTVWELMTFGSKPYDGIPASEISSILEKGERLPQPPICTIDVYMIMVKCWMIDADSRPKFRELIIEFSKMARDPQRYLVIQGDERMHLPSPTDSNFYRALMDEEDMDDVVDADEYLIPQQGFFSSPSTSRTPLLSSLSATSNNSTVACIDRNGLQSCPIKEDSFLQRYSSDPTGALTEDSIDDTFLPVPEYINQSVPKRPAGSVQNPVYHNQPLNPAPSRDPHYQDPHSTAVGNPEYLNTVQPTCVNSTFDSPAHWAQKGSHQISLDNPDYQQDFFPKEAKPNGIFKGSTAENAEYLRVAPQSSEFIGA

[14] = rats, oral 50 mg/kg; cited from earlier work
[15] = read-out: IC50 for PDGFbb-induced FLS proliferation (PDGFR), FLS from human RA patient, H3-thymidine incorporation, FIG. 11B
[16] = Table 5, read-out: PDGFR Inhibitory Profile (IC50)
[17] = 0-5 μM imatinib, SCF 10 minutes, immunoblot
[18] = CII-specific (anti-CII) TCR transgenic, 1 μM
[19] = CII-specific (anti-CII) TCR transgenic, 5 μM
[20] = CII-specific (anti-CII) TCR transgenic, 10 μM
[21] = CII-specific TCR transgenic, 1 μM
[22] = CII-specific TCR transgenic, 5 μM
[23] = CII-specific TCR transgenic, 10 μM
[24] = Table 7, read-out: PDGFR Inhibitory profile (with IC50s when available)

CC1(C)CNc2cc(NC(=O)c3cccnc3NCc3ccncc3)ccc21 [AMG 706]
PDGFR Inhibitory profile (with IC50s when available) (PDGFR [1]; Table 7): potent

CC(C)c1c(C(=O)Nc2ccccc2)c(-c2ccccc2)c(-c2ccc(F)cc2)n1CC[C@@H](O)C[C@@H](O)CC(=O)O [Atorvastatin]
clinical scores of CIA ([2]; atorvastatin alone, 1.25 to 20 mg/kg, FIG. 16B): not effective at decreasing the clinical scores of CIA

Cc1ccc(NC(=O)c2ccccc2)cc1Nc1nccc(-c2cccnc2)n1 [CGP53716]
IC50 (PDGFR [3]; [15]): […] | IC50 (PDGFR [1]; [16]): […] | severity of CIA (scores, paw measurements), direct comparison study ([2]; FIG. 13C-13D): statistically significant reductions in the severity of CIA | efficacy at preventing and treating CIA relative to imatinib ([2]; FIG. 13C-13D): nearly as effective as imatinib | plasma level ([4]; 8 hours after dosing): 1600 nM | plasma level ([4]; 24 hours after dosing): 1900 nM | IC50 (c-Kit [5]): 2 nM | IC50 (FGFR): 1100 nM | inhibition of other kinases including EGFR, FGFR, insulin receptors, Src, Lyn, PKA and PKC [6]: does not inhibit other kinases at clinically relevant concentrations | IC50 (Abl): 600 nM | IC50 (c-Kit [7]): < 1000 nM

COc1cc2c(Oc3ccc4[nH]c(C)cc4c3F)ncnc2cc1OCCCN1CCCC1 [Cediranib]
PDGFR Inhibitory profile (with IC50s when available) (PDGFR [1]; Table 7): potent?

COc1ccc(COc2ccc(Cc3cnc(N)nc3N)cc2OC)cc1 [GW2580]
IC50 (PDGFR [3]; [15]): 4300 nM and 4350 nM | IC50 (PDGFR [3]; read-out: PDGFR Inhibitory Profile (IC50), Table 5, value referenced to FIG. 11): 4300 nM | severity of established CIA (mean visual arthritis score, paw thickness) ([8]; 50 mg/kg for 5 days vs vehicle): highly effective at treating established collagen-induced arthritis; also recorded: reduced the severity of arthritis

Cc1ccc(NC(=O)c2ccc(CN3CCN(C)CC3)cc2)cc1Nc1nccc(-c2cccnc2)n1 [Imatinib]
differentiation of synovial fluid monocytes into macrophages (morphology) (synovial fluid monocytes): blocked the differentiation of synovial fluid monocytes from human RA patients into macrophages | onset and severity of EAE (EAE in C57B/6 mice): a delay in the onset and reduced severity of EAE | expansion (epitope spreading) of autoreactive B cell responses [9]: reduced expansion of autoreactive B cell responses | CIA efficacy compared to PBS vehicle-control ([2]; 15 mg/kg imatinib, FIG. 16A): relatively little efficacy | severity of CIA (mean visual arthritis score, mean paw thickness) ([2]; 33 or 100 mg/kg orally twice-daily from 1 day prior to induction, p<0.01 after day 38): significant reductions in the severity of CIA | incidence of CIA ([2]; 33 or 100 mg/kg orally twice-daily, day 49): reduced the incidence of CIA | severity of CIA (scores, paw measurements), direct comparison study ([2]; FIG. 13C-13D): statistically significant reductions in the severity of CIA | histopathology: synovitis, pannus, and erosion scores ([2]; CIA prevention study, 33 and 100 mg/kg, p<0.01 synovitis and erosion, p<0.05 pannus): statistically significant reductions in synovitis, pannus, and erosion scores | mast cell production of TNFα, GM-CSF, and IL-6 (C1.MC/57.1 mast cells): dramatically reduced mast cell production of TNFα, GM-CSF, and IL-6 | SCF-induced phosphorylation of c-Kit (c-Kit [10]; [17]): potently inhibited SCF-induced phosphorylation of c-Kit | phosphorylation of downstream Akt (Ser 473) (c-Kit [10]; [17]): corresponding reduction in phosphorylation of downstream Akt (Ser 473) | SCF-induced activation of kinases downstream of c-Kit (ERK, JNK, p38), RPP array (c-Kit [10]; 1 and 5 μM imatinib): inhibited SCF-induced activation of diverse protein tyrosine kinases downstream of c-Kit | IgM production by LPS-stimulated B cells ([11]; imatinib 1 μM): mildly reduced | IgM production by LPS-stimulated B cells ([11]; imatinib 10 μM): most significant reduction | progression of established arthritis (visual score, mean paw thickness) ([8]; 33 and 100 mg/kg, p<0.05 after 10 days of treatment): inhibited the progression of established arthritis | histopathology: synovitis, pannus, and erosion scores ([8]; treatment of established CIA, 33 and 100 mg/kg, p<0.05): statistically significant reductions in synovitis, pannus, and erosion scores | production of IFN-γ and TNFα by CII-stimulated TCR transgenic T cells ([12]; CII 20 μg/mL, 3.3 μM imatinib): moderate reduction | production of IFN-gamma, IL-4, and TNFα by CII-stimulated TCR transgenic T cells ([12]; CII 20 μg/mL, 10 μM imatinib): further reduced production | anti-CII T cell production of IL-2 ([12]; any imatinib concentration tested): not significantly reduced | Early apoptosis (PI− AnnV+) (anti-CII T cells; [18]): 3.8% | Late apoptosis (PI+ AnnV+) (anti-CII T cells; [18]): 0.6% | Early apoptosis (PI− AnnV+) (anti-CII T cells; [19]): 5.2% | Late apoptosis (PI+ AnnV+) (anti-CII T cells; [19]): 1.2% | Early apoptosis (PI− AnnV+) (anti-CII T cells; [20]): 6.2% | Late apoptosis (PI+ AnnV+) (anti-CII T cells; [20]): 0.9% | Early apoptosis (PI− AnnV+) (anti-CII T cells; [21]): 4.6% | Late apoptosis (PI+ AnnV+) (anti-CII T cells; [21]): 1.1% | Live cells (PI− AnnV−) (anti-CII T cells; [21]): 95.5% | Early apoptosis (PI− AnnV+) (anti-CII T cells; [22]): 5.3% | Late apoptosis (PI+ AnnV+) (anti-CII T cells; [22]): 0.7% | Live cells (PI− AnnV−) (anti-CII T cells; [22]): 93.6% | Early apoptosis (PI− AnnV+) (anti-CII T cells; [23]): 6.6% | Late apoptosis (PI+ AnnV+) (anti-CII T cells; [23]): 0.9% | Live cells (PI− AnnV−) (anti-CII T cells; [23]): 93.7% | Early apoptosis (PI− AnnV+) (anti-CII T cells; anti-CII TCR transgenic, 1 μM): 3.4% | Late apoptosis (PI+ AnnV+) (anti-CII T cells; anti-CII TCR transgenic, 1 μM): 0.5% | Early apoptosis (PI− AnnV+) (anti-CII T cells; anti-CII TCR transgenic, 5 μM): 5.9% | Late apoptosis (PI+ AnnV+) (anti-CII T cells; anti-CII TCR transgenic, 5 μM): 0.8% | Early apoptosis (PI− AnnV+) (anti-CII T cells; anti-CII TCR transgenic, 10 μM): 6.1% | Late apoptosis (PI+ AnnV+) (anti-CII T cells; anti-CII TCR transgenic, 10 μM): 0.9%

Cc1cn(-c2cc(NC(=O)c3ccc(C)c(Nc4nccc(-c5cccnc5)n4)c3)cc(C(F)(F)F)c2)cn1 [Nilotinib]
IC50 (PDGFR [1]; [24]): 1 nM

Cn1c(=O)c(-c2c(Cl)cccc2Cl)cc2cnc(Nc3cccc(CO)c3)nc21 [PD166326]
trough plasma level ([13]; 25 mg/kg): approximately 0.005 μM | peak plasma level ([13]; 25 mg/kg): 0.026 µM | trough plasma level ([13]; 50 mg/kg): ~0.018 µM | peak plasma level ([13]; 50 mg/kg): 0.098 µM

C[C@@H](Nc1ncnc2[nH]c(-c3ccc(O)cc3)cc12)c1ccccc1 [PKI-166]
EGFR Inhibitory profile (with IC50s when available) (EGFR): potent

Cc1[nH]c(/C=C2\C(=O)Nc3ccccc32)c(C)c1CCC(=O)O [SU6668]
IC50 (PDGFR [1]; [24]): 10 nM

Cc1[nH]c(/C=C2\C(=O)Nc3ccc(Br)cc32)c(C)c1CCC(=O)O [SU9518]
IC50 (PDGFR [1]; [16]): 50 nM | IC50 (PDGFR [1]; literature, read-out: IC50 PDGFR (PDGFRα/β)): 53 nM | IC50 (FGFR; unit inferred): 4400 nM | peak plasma level [14]: 1.76 µM | plasma level 8 hours after dosing [14]: above 1 μM

CNC(=O)c1cc(Oc2ccc(NC(=O)Nc3ccc(Cl)c(C(F)(F)F)c3)cc2)ccn1 [Sorafenib]
PDGFR Inhibitory profile (with IC50s when available) (PDGFR [1]; Table 6): potent
